From patent US20060069132A1, “Azolecarboxamide herbicides” (priority 2004, published 2006)

Columns and labels:
lambsquarters = experiment: Test B pre-/postemergence herbicide test; assay type: in vivo, Chenopodium album
How it was run: (§1)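 Visual rating, 0 (no effect) to 100 (complete control), versus untreated controls after 13–15 d in greenhouse. Pre- and postemergence applications (postemergence plants 2–18 cm, 1–4 leaves); flooded paddy arm at 2-leaf stage. Compounds in non-phytotoxic solvent plus surfactant.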

giant foxtail = experiment: Test B pre-/postemergence herbicide test; assay type: in vivo, Setaria faberi
How it was run: as §1

blackgrass = experiment: Test B postemergence herbicide test; assay type: in vivo, Alopecurus myosuroides
How it was run: (§2)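 After treating 2-leaf paddy plants or 2–18 cm postemergence plants (1 to 4 leaves) with formulated chemical, researchers kept them in a greenhouse for 13–15 days. Effects were judged visually versus controls: 0 indicates none, 100 total control.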

[1] = test system: small flower umbrella sedge; experiment: Test B flooded paddy test; assay type: in vivo, Cyperus difformis; conditions: scale 0 to 100 (0 no effect, 100 complete control)
How it was run: as §2

wild oat = experiment: Test B postemergence herbicide test; assay type: in vivo, Avena fatua
How it was run: (§3)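 Formulated test chemicals went onto postemergence plants measuring 2 to 18 cm, at one to four leaves. For the paddy assay, species had reached two leaves. Scoring took place 13–15 days later by eye, relative to untreated plants, using 0 for no effect up to 100 for full control.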

cocklebur = experiment: Test B pre-/postemergence herbicide test; assay type: in vivo, Xanthium strumarium
How it was run: (§4)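 Flooded paddy rice and barnyardgrass were treated at the 2-leaf stage; upland plantings received compound either on sown seed or on 1- to 4-leaf seedlings. All were kept 13–15 days in a greenhouse and scored visually, 0–100, relative to untreated plants.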

wheat = experiment: Test B postemergence herbicide test; assay type: in vivo, Triticum aestivum; design: key to Wheat plant response rating: 0 = no effect, 100 = complete control
How it was run: as §3

corn = experiment: Test B pre-/postemergence herbicide test; assay type: in vivo, Zea mays
How it was run: as §1

large crabgrass = experiment: Test B pre-/postemergence herbicide test; assay type: in vivo, Digitaria sanguinalis
How it was run: as §1

barnyardgrass [2] = experiment: Test B flooded paddy test; assay type: in vivo, Echinochloa crus-galli; conditions: scale 0 to 100 (0 no effect, 100 complete control)
How it was run: as §2

rice = experiment: Test B flooded paddy test; assay type: in vivo, Oryza sativa; conditions: scale 0 to 100 (0 no effect, 100 complete control)
How it was run: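 Read-out: visual comparison with controls, scored 0 to 100, where 100 means complete control and 0 no effect. Formulated chemicals were applied postemergence to plants 2–18 cm tall (1- to 4-leaf), or to flooded-paddy plants at the 2-leaf stage, then held 13 to 15 days under glass.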

Surinam grass = experiment: Test B pre-/postemergence herbicide test; assay type: in vivo, Urochloa decumbens
How it was run: as §1

ducksalad = experiment: Test B flooded paddy test; assay type: in vivo, Heteranthera limosa; conditions: scale 0 to 100 (0 no effect, 100 complete control)
How it was run: as §2

morningglory = experiment: Test B pre-/postemergence herbicide test; assay type: in vivo, Ipomoea coccinea
How it was run: as §4

pigweed = experiment: Test B pre-/postemergence herbicide test; assay type: in vivo, Amaranthus retroflexus
How it was run: as §1

barnyardgrass [3] = experiment: Test B pre-/postemergence herbicide test; assay type: in vivo, Echinochloa crus-galli
How it was run: as §4

velvetleaf = experiment: Test B pre-/postemergence herbicide test; assay type: in vivo, Abutilon theophrasti
How it was run: as §1

[4] = 125 g ai/ha, 0 is no effect, 100 is complete control, preemergence
[5] = 125 g ai/ha, visual rating, scale 0 (no effect) to 100 (complete control), postemergence
[6] = Postemergence, 500 g ai/ha, scale 0 (no effect) to 100 (complete control)
[7] = postemergence, 500 g ai/ha, scale 0 to 100, 0 is no effect, 100 is complete control
[8] = 500 g ai/ha, scale 0 to 100, 0 no effect, 100 complete control, preemergence
[9] = postemergence, 125 g ai/ha, scale 0 to 100

CCOC(=O)c1ccc(F)c(NC(=O)c2nn(C(C)(C)CC)nc2CC)c1 [Compound 373]
20: Lambsquarters plant response rating (lambsquarters; [5]) | Foxtail, Giant plant response rating (giant foxtail; [5]) | Sedge, Umbrella plant response rating ([1]; 1000 g ai/ha) | Corn plant response rating (corn; [7]) | Barnyardgrass plant response rating (barnyardgrass [2]; 1000 g ai/ha) | Surinam Grass plant response rating (Surinam grass; [6]) | Morningglory plant response rating (morningglory; [5]) | Morningglory plant response rating (morningglory; [6]) | Barnyardgrass plant response rating (barnyardgrass [3]; [7]) | Velvetleaf plant response rating (velvetleaf; [5])
70: Pigweed plant response rating (pigweed; [6])
30: Lambsquarters plant response rating (lambsquarters; [6]) | Foxtail, Giant plant response rating (giant foxtail; [7]) | Oat, Wild plant response rating (wild oat; [6]) | Cocklebur plant response rating (cocklebur; [7]) | Velvetleaf plant response rating (velvetleaf; [6])
50: Pigweed plant response rating (pigweed; [5])
10: Blackgrass plant response rating (blackgrass; [7]) | Oat, Wild plant response rating (wild oat; [5]) | Cocklebur plant response rating (cocklebur; [5]) | Wheat plant response rating (wheat; [6]) | Crabgrass, Large plant response rating (large crabgrass; [5]) | Crabgrass, Large plant response rating (large crabgrass; [7]) | Surinam Grass plant response rating (Surinam grass; [5]) | Barnyardgrass plant response rating (barnyardgrass [3]; [5])
0: Plant response rating (0 to 100 scale), Lambsquarters (lambsquarters; [4]) | Plant response rating (0 to 100 scale), Foxtail, Giant (giant foxtail; [4]) | Blackgrass plant response rating (blackgrass; [5]) | Plant response rating (0 to 100 scale), Cocklebur (cocklebur; [4]) | Wheat plant response rating (wheat; [5]) | Wheat plant response rating (wheat; [8]) | Plant response rating (0 to 100 scale), Corn (corn; [4]) | Corn plant response rating (corn; [5]) | Plant response rating (0 to 100 scale), Crabgrass, Large (large crabgrass; [4]) | Rice plant response rating (rice; 1000 g ai/ha) | Plant response rating (0 to 100 scale), Surinam Grass (Surinam grass; [4]) | Ducksalad plant response rating (ducksalad; 1000 g ai/ha) | Plant response rating (0 to 100 scale), Morningglory (morningglory; [4]) | Plant response rating (0 to 100 scale), Pigweed (pigweed; [4]) | Plant response rating (0 to 100 scale), Barnyardgrass (barnyardgrass [3]; [4]) | Plant response rating (0 to 100 scale), Velvetleaf (velvetleaf; [4])

CCNC(=O)c1cccc(NC(=O)c2nn(C(C)(C)C)nc2Br)c1 [Compound 434]
60: Oat, Wild plant response rating (wild oat; [6]) | Barnyardgrass plant response rating (barnyardgrass [2]; 125 g ai/ha) | Morningglory plant response rating (morningglory; [9]) | Pigweed plant response rating (pigweed; [6])
90: Sedge, Umbrella plant response rating ([1]; 125 g ai/ha) | Wheat plant response rating (wheat; [8])
10: Surinam Grass plant response rating (Surinam grass; [9]) | Barnyardgrass plant response rating (barnyardgrass [3]; Postemergence, 125 g ai/ha, scale 0 (no effect) to 100 (complete control)) | Velvetleaf plant response rating (velvetleaf; [9])
30: Foxtail, Giant plant response rating (giant foxtail; [6]) | Blackgrass plant response rating (blackgrass; [9]) | Crabgrass, Large plant response rating (large crabgrass; [6]) | Barnyardgrass plant response rating (barnyardgrass [3]; [6])
70: Lambsquarters plant response rating (lambsquarters; [6]) | Cocklebur plant response rating (cocklebur; [6]) | Rice plant response rating (rice; 125 g ai/ha) | Ducksalad plant response rating (ducksalad; 125 g ai/ha) | Morningglory plant response rating (morningglory; [6])
50: Blackgrass plant response rating (blackgrass; [6]) | Oat, Wild plant response rating (wild oat; [9]) | Cocklebur plant response rating (cocklebur; [9]) | Wheat plant response rating (wheat; [6])
40: Lambsquarters plant response rating (lambsquarters; [9]) | Wheat plant response rating (wheat; [9]) | Corn plant response rating (corn; [6]) | Corn plant response rating (corn; [9]) | Pigweed plant response rating (pigweed; [9])
20: Foxtail, Giant plant response rating (giant foxtail; [9]) | Crabgrass, Large plant response rating (large crabgrass; [9]) | Surinam Grass plant response rating (Surinam grass; [6]) | Velvetleaf plant response rating (velvetleaf; [6])
